Tests used:
[1] = target: T1, endogenous Escherichia coli tryptophan synthase beta subunit (TrpB) (Escherichia coli, UniProt P0A879); assay: TrpB substrate flexibility, in vivo conversion of substituted indoles to tryptophans; type: cell-based; settings: sampled at 24 h
T1 construct: Yield for production of tryptophan derivatives by native E. coli TrpB from indole derivatives; endogenous in cells; host or cells: E. coli BL21 Star (DE3) carrying pETM6-SDM2x (empty vector for the TrpB-alone study)
Text: (§1) Four previously constructed BL21 Star™ (DE3) cell lines with pETM6-SDM2x plasmid backbones were used, each with endogenous Escherichia coli (E. coli) tryptophan synthase beta subunit (TrpB); (1) no gene insert (empty vector), (2) PsiD gene insert with T7 promoter, (3) PsiD-PsiK gene insert with C4 promoter in operon configuration (pNor, Norbaeocystin Production Strain) (Adams et al., 2022), and (4) PsiD-PsiK-PsiM gene insert with H10 promoter in operon configuration (pSilo16, Psilocybin Production Strain; See WO 2021/086513) (Adams et al., 2019). For the PsiD transcriptional optimization study, each of the nine previously described library members were used, in lieu of the strains above. Overnight cultures were grown in Andrew's Magic Media (AMM) without MOPS, appropriate antibiotics for plasmid retention, and were inoculated from freezer stocks. Experimental cultures were incubated in covered 48-well plates at 37° C. in a shaking incubator. AMM media consistent with above was inoculated at 2% final volume of respective overnight culture and 2 mL aliquoted to each well. Indole derivatives were added to each well, except negative control, at 100 mg/L using 5 uL from a 40 mg/mL stock in EtOH. 4-Nitroindole at 13.3 mg/mL in EtOH was added using 15 uL due to solubility limitations. Cultures were induced at 2 hours using 1 mM ITPG. Cultures were sampled at 24 hours and subjected to LC-MS analysis as described below. Cultures with serine added were identical to those without, except for adding 4.5 g/L of serine prior to inoculation.
Without commercially available standards for many of these compounds absolute quantification of enzymatic products is not possible. Peak areas from one substituted indole could not be compared directly to peak areas from another substituted indole due to significant differences in extinction coefficients. Relative quantification was performed by comparing product UV 280 nm peak areas from HPLC analysis (mAU*min) to that of the corresponding substituted indole. TrpB proficiencies with and without serine were calculated by dividing the tryptophan product peak areas by the total peak areas from the indole and tryptophan peaks. Tryptophan and indole peak areas were determined from duplicate samples with indole and subtraction of any time-correlated peak areas found in the samples without indole addition. Any other indole related peak areas found in indole samples were included in the denominator. Indole related peaks were defined as peaks found in indole samples, but absent from samples without indole addition. Similar calculations were performed for PsiD proficiencies where tryptamine peak areas were divided by the total area of associated tryptamine and tryptophan peaks. Indole utilization was also calculated for PsiD proficiencies where the remaining indole peak areas were divided by the initial peak areas.

P. cubensis PsiD = target: T2, P. cubensis PsiD (Psilocybe cubensis, UniProt P0DPA6, L22F); assay: PsiD substrate flexibility, in vivo decarboxylation of substituted tryptophans to tryptamines; type: cell-based, Escherichia coli; settings: in vivo in E. coli expressing PsiD, HPLC/LCMS detection
T2 construct: expressed in transfected cells; host or cells: E. coli BL21 Star (DE3); PsiD insert with the T7 promoter, or promoter/backbone library members, or pNor and pSilo16
Text: as §1, with “Indole derivatives were added to each well, except negative control, at 100 mg/L using 5 uL from a 40 mg/mL stock in EtOH. 4-Nitroindole at 13.3 mg/mL in EtOH was added using 15 uL due to solubility limitations. Cultures were induced at 2 hours using 1 mM ITPG. Cultures were sampled at 24 hours and subjected to LC-MS analysis as described below. Cultures with serine added were identical to those without, except for adding 4.5 g/L of serine prior to inoculation.” left out
Without commercially available standards for many of these compounds absolute quantification of enzymatic products is not possible. […] Relative quantification was performed by comparing product UV 280 nm peak areas from HPLC analysis (mAU*min) to that of the corresponding substituted indole. TrpB proficiencies with and without serine were calculated by dividing the tryptophan product peak areas by the total peak areas from the indole and tryptophan peaks. Tryptophan and indole peak areas were determined from duplicate samples with indole and subtraction of any time-correlated peak areas found in the samples without indole addition. […] Indole utilization was also calculated for PsiD proficiencies where the remaining indole peak areas were divided by the initial peak areas.
PsiD substrate flexibility was evaluated jointly in vivo with TrpB, such that if indoles were not sufficiently processed by TrpB, then PsiD activity could not be evaluated. […]

E. coli BL21 Star (DE3) = assay: Culture growth of E. coli production host supplemented with indole derivatives; type: cell-based, Escherichia coli; settings: indole derivative 100 mg/L in 48-well culture, 37 C, compared visually with other indoles
Text: as §1
Other indoles may have slowed cell growth, but the differences were not easily distinguishable visually as OD600 reading were not taken for every sample.

[2] = without supplemental serine, indole 100 mg/L, tryptophan peak area / total indole-related peak areas (UV 280 nm)
[3] = with supplemental serine 4.5 g/L

T1 sequence (P0A877 whole entry): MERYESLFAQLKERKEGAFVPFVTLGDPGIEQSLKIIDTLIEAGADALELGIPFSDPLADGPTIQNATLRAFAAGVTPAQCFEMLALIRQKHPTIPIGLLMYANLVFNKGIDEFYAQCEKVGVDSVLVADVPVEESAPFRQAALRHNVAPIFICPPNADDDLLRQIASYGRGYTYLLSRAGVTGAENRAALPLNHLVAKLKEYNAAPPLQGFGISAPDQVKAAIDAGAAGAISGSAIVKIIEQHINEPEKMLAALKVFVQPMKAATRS
T1 sequence (P0A879 2-397): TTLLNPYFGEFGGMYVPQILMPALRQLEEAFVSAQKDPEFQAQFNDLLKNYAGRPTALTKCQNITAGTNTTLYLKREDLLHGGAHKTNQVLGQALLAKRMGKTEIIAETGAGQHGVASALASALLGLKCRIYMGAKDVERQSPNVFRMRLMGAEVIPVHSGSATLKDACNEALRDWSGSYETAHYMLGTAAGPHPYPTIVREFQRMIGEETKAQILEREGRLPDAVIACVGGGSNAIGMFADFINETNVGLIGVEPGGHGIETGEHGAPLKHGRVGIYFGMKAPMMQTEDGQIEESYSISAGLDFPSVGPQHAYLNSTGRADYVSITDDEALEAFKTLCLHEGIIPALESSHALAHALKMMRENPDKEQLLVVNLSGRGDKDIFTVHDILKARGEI
T2 sequence (P0DPA6 whole entry, stated change not applied): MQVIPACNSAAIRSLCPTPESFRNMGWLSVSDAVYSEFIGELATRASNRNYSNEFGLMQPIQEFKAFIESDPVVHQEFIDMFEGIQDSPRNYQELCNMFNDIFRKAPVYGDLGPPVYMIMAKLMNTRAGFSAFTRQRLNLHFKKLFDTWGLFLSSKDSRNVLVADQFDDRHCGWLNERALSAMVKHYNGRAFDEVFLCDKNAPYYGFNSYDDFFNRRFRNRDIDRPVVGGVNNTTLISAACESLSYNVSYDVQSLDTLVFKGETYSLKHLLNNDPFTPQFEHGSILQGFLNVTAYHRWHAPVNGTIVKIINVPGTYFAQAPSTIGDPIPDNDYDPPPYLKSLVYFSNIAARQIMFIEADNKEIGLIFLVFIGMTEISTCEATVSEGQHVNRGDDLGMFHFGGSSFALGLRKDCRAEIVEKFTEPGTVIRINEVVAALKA

Row | SMILES | TrpB proficiency (class) [1, 2] | TrpB proficiency [1, 3] [%] | culture growth retardation (toxicity effects of the indole derivatives) (E. coli BL21 Star (DE3)) | further results
1 | Clc1cc2ccccc2[nH]1 [2-chloroindole] | moderate (35-65%) or low proficiency (5-35%) |  |  | 
2 | N[C@@H](Cc1c(Cl)[nH]c2ccccc12)C(=O)O [2-chlorotryptophan] |  |  |  | PsiD conversion to tryptamine product (P. cubensis PsiD): neither tryptamine product was observed
3 | Cc1cc2ccccc2[nH]1 [2-methylindole] |  | 100 |  | PsiD conversion to tryptamine product (P. cubensis PsiD): no tryptamine product could be detected
4 | Cc1[nH]c2ccccc2c1C[C@H](N)C(=O)O [2-methyltryptophan] |  |  |  | PsiD conversion to tryptamine product (P. cubensis PsiD): neither tryptamine product was observed
5 | Nc1cccc2[nH]ccc12 [4-aminoindole] | moderate (35-65%) or low proficiency (5-35%) | 23 | significant culture growth retardation | 
6 | Brc1cccc2[nH]ccc12 [4-bromoindole] | moderate (35-65%) or low proficiency (5-35%) |  | significant culture growth retardation | 
7 | Clc1cccc2[nH]ccc12 [4-chloroindole] | moderate (35-65%) or low proficiency (5-35%) |  | significant culture growth retardation | 
8 | Fc1cccc2[nH]ccc12 [4-fluoroindole] | moderate (35-65%) or low proficiency (5-35%) | 100 | significant culture growth retardation | TrpB proficiency [1, 2]: 27%
9 | Oc1cccc2[nH]ccc12 [4-hydroxyindole] |  | 100 |  | 
10 | Ic1cccc2[nH]ccc12 [4-iodoindole] | moderate (35-65%) or low proficiency (5-35%) |  | significant culture growth retardation | 
11 | COc1cccc2[nH]ccc12 [4-methoxyindole] | moderate (35-65%) or low proficiency (5-35%) |  |  | 
12 | Cc1cccc2[nH]ccc12 [4-methylindole] | moderate (35-65%) or low proficiency (5-35%) | 93 | significant culture growth retardation | TrpB proficiency [1, 2]: 22%
13 | Brc1ccc2[nH]ccc2c1 [5-bromoindole] |  |  | significant culture growth retardation | 
14 | Clc1ccc2[nH]ccc2c1 [5-chloroindole] |  |  | significant culture growth retardation | 
15 | Fc1ccc2[nH]ccc2c1 [5-fluoroindole] | moderate (35-65%) or low proficiency (5-35%) |  | significant culture growth retardation | 
16 | Oc1ccc2[nH]ccc2c1 [5-hydroxyindole] | moderate (35-65%) or low proficiency (5-35%) |  |  | 
17 | Ic1ccc2[nH]ccc2c1 [5-iodoindole] |  |  | significant culture growth retardation | 

Row | SMILES | TrpB proficiency (class) [1, 2] | TrpB proficiency [1, 3] [%] | culture growth retardation (toxicity effects of the indole derivatives) (E. coli BL21 Star (DE3)) | further results
18 | COc1ccc2[nH]ccc2c1 [5-methoxyindole] | moderate (35-65%) or low proficiency (5-35%) |  |  | 
19 | Cc1ccc2[nH]ccc2c1 [5-methylindole] | moderate (35-65%) or low proficiency (5-35%) |  |  | 
20 | Brc1ccc2cc[nH]c2c1 [6-bromoindole] | moderate (35-65%) or low proficiency (5-35%) |  | significant culture growth retardation | 
21 | Clc1ccc2cc[nH]c2c1 [6-chloroindole] | moderate (35-65%) or low proficiency (5-35%) |  | significant culture growth retardation | 
22 | Fc1ccc2cc[nH]c2c1 [6-fluoroindole] | moderate (35-65%) or low proficiency (5-35%) |  | significant culture growth retardation | 
23 | Oc1ccc2cc[nH]c2c1 [6-hydroxyindole] |  | 3 |  | 
24 | Ic1ccc2cc[nH]c2c1 [6-iodoindole] | moderate (35-65%) or low proficiency (5-35%) |  | significant culture growth retardation | 
25 | COc1ccc2cc[nH]c2c1 [6-methoxyindole] | moderate (35-65%) or low proficiency (5-35%) |  |  | 
26 | O=[N+]([O-])c1ccc2cc[nH]c2c1 [6-nitroindole] |  |  | significant culture growth retardation | 
27 | Nc1cccc2cc[nH]c12 [7-aminoindole] | moderate (35-65%) or low proficiency (5-35%) |  |  | 
28 | Brc1cccc2cc[nH]c12 [7-bromoindole] |  | 100 |  | 
29 | N#Cc1cccc2cc[nH]c12 [7-cyanoindole] | moderate (35-65%) or low proficiency (5-35%) |  |  | 
30 | Fc1cccc2cc[nH]c12 [7-fluoroindole] | moderate (35-65%) or low proficiency (5-35%) | 95 | significant culture growth retardation | TrpB proficiency [1, 2]: 45%
31 | Oc1cccc2cc[nH]c12 [7-hydroxyindole] |  | 100 |  | 
32 | Ic1cccc2cc[nH]c12 [7-iodoindole] |  | 100 |  | 
33 | COc1cccc2cc[nH]c12 [7-methoxyindole] |  | 100 |  | 
34 | Cc1cccc2cc[nH]c12 [7-methylindole] |  | 100 |  | 
